{"source": "patent US7951962B2", "about": "“Organic semiconductor compound, organic semiconductor thin film, organic semiconductor coating liquid, organic thin film transistor, methods for producing bis(benzo[4,5] thieno)[2,3-B:3′2′-E][1,4]dithin and bis(benzo [4,5]thieno)[2,3-B:2′3′-E][1,4]dithiin” (Seiko Epson Corporation, priority 2006, dated 2011)", "key": {"Solvent solubility": {"experiment": "Solvent solubility", "format": "physicochemical", "excerpt": "The solvent for dissolving the organic semiconductor compound material according to the embodiment may be a hydrocarbon, an alcohol, an ether, an ester, a halogen, a ketone, […], the BTX, a non-proton polar solvent or a mixture solvent thereof. The hydrocarbon may be hexane, heptane, octane or cyclohexane, for example. The alcohol may be methanol, ethanol, (iso-)propanol or butanol. The ether may be diethyl ether, tetrahydrofuran or dioxane and the ester may be ethyl acetate or butyl acetate. The halogen may be dichloromethane or chloroform and the ketone may be acetone or methyl ethyl ketone. The nitrile may be acetonitrile or methyl nitrile. The BTX is a mixture of benzene, toluene and xylene. The non-proton polar solvent may be dimethylsulfoxide (DMSO), dimethylformamide (DMF) or hexamethylphosphoramide (HMPA).\nBased on logarithmic plotting in the graph, an ON/OFF ratio of the device was approximately […]."}}, "data": [{"smiles": "c1ccc2c3c(sc2c1)Sc1c(sc2ccccc12)S3", "note": "[bis(benzo[4,5]thieno)[2,3-b: 2′3′-e][1,4]dithiin]", "values": [{"measurement": "melting point", "value": "207 to 208.3", "unit": "°C"}]}, {"smiles": "c1ccc2c3c(sc2c1)Sc1sc2ccccc2c1S3", "note": "[bis(benzo[4,5]thieno)[2,3-b: 3′2′-e][1,4]dithiin]", "values": [{"measurement": "solubility in solvent", "setting": "Solvent solubility; the above-described solvent (hydrocarbon, alcohol, ether, ester, halogen, ketone, nitrile, BTX, non-proton polar solvent)", "value": "soluble in the above-described solvent"}, {"measurement": "solubility compared with known compounds", "setting": "Solvent solubility; versus well-known low-molecular organic semiconductor compounds", "value": "higher solubility than well-known low-molecular organic semiconductor compounds"}]}]}
